Reference: patent publication US9790229B2, “Bruton's tyrosine kinase inhibitors” (priority 2009, dated 2017)

The molecules below were run against BTK (Homo sapiens (Human), UniProt Q06187) (assay: In vitro BTK kinase assay: BTK-POLYGAT-LS ASSAY). Details: not given.
Sequence of BTK (Q06187 whole entry): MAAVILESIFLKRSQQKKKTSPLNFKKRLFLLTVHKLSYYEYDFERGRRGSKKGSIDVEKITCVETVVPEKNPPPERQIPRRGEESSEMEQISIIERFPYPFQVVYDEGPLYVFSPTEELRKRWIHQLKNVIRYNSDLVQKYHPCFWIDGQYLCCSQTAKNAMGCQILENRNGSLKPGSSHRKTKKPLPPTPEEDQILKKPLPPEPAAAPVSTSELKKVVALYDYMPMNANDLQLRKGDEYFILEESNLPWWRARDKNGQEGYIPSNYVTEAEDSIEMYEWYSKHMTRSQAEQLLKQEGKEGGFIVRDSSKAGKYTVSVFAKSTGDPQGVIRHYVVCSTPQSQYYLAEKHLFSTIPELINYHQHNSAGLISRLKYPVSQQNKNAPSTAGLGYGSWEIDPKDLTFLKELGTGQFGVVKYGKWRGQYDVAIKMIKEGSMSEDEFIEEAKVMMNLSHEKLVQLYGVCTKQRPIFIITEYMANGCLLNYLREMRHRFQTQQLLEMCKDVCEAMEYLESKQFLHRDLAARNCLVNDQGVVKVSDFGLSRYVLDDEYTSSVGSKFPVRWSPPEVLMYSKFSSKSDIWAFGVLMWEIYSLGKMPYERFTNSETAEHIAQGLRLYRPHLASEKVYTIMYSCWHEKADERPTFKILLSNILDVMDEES

Q: Which IC50 does the source give for O=C1Cc2c(ncnc2N2CCCC(c3cccc(NC(=O)Nc4ccccc4)c3)C2)N1 (centres unmarked) [Cmpd 96, 1-(3-(1-(6-oxo-6,7-dihydro-5H-pyrrolo[2,3-d]pyrimidin-4-yl)piperidin-3-yl)phenyl)-3-phenylurea] here?
A: 1 to 10 µM

Q: Which IC50 does the source give for O=C(Nc1ccccc1)Nc1cccc(C2CN(c3ncnc4[nH]ccc34)CCN2)c1 (centres unmarked) [compound 125, 1-(3-(4-(7H-pyrrolo[2,3-N]pyrimidin-4-yl)piperazin-2-yl)phenyl)-3-phenylurea] here?
A: 1 to 10 µM

Q: How did the IC50 turn out when CCNc1ncnc(N2CCC[C@@H](N3CCCC(Nc4cc(F)cc(Cl)c4)C3=O)C2)c1F (stereo partly drawn) [compound 287, (3′R)-3-(3-Chloro-5-fluorophenylamino)-1′-(6-(ethylamino)-5-fluoropyrimidin-4-yl)-1,3′-bipiperidin-2-one] was run?
A: 1 to 10 µM

Q: How did the IC50 turn out when O=C(Nc1ccc(F)cc1)Nc1cccc(C2CCCN(c3ncnc4[nH]ccc34)C2)c1 (centres unmarked) [compound 185] was run?
A: 1 to 10 µM

Q: Which IC50 does the source give for O=C(Nc1cccc(C2CCCN(c3ncnc4[nH]ccc34)C2)c1)c1ccccc1 (centres unmarked) [Cmpd 2, N-(3-(1-(7H-pyrrolo[2,3-d]pyrimidin-4-yl)piperidin-3-yl)phenyl)benzamide] here?
A: 1 to 10 µM

Q: O=C(Nc1ccccc1)Nc1cccc(C2CCCN(c3ncnc4[nH]ccc34)C2)n1 (centres unmarked) [compound 118, 1-(6-(1-(7H-pyrrolo[2,3-d]pyrimidin-4-yl)piperidin-3-yl)pyridin-2-yl)-3-phenylurea] was tested. Which IC50 did it give?
A: 1 to 10 µM

Q: How did the IC50 turn out when CN(C)[C@@H]1CCN(c2ccccc2NC(=O)Nc2cccc(C3CCCN(c4ncnc5[nH]ccc45)C3)c2)C1 (some centres unmarked) [compound 210] was run?
A: 1 to 10 µM

Q: With COc1ccc(NC(=O)Nc2cccc(C3CCCN(c4ncnc5[nH]ccc45)C3)c2)cc1 (centres unmarked) [compound 201] as the molecule, how does the IC50 read?
A: 1 to 10 µM

Q: Which IC50 does the source give for CN(C)Cc1ccccc1NC(=O)Nc1cccc(C2CCCN(c3ncnc4[nH]ccc34)C2)c1 (centres unmarked) [Cmpd 63, 1-(3-(1-(7H-pyrrolo[2,3-d]pyrimidin-4-yl)piperidin-3-yl)phenyl)-3-(2-((dimethylamino)methyl)phenyl)urea] here?
A: 1 to 10 µM

Q: N[C@@H]1CCN(c2ccccc2NC(=O)Nc2cccc(C3CCCN(c4ncnc5[nH]ccc45)C3)c2)C1 (some centres unmarked) [compound 164] was tested. Which IC50 did it give?
A: 0.1 to 0.999 µM

Q: How did the IC50 turn out when O=C(Nc1ccccc1)Nc1csc(C2CCCN(c3ncnc4[nH]ccc34)C2)n1 (centres unmarked) [compound 106, 1-(2-(1-(7H-pyrrolo[2,3-d]pyrimidin-4-yl)piperidin-3-yl)thiazol-4-yl)-3-phenylurea] was run?
A: 1 to 10 µM

Q: How did the IC50 turn out when O=C(Nc1ccccc1)N[C@@H]1CCCN(C2CCCN(c3ncnc4[nH]ccc34)C2)C1 (some centres unmarked) [compound 205] was run?
A: 1 to 10 µM

Same assay, conditions: read-out: IC50 (10 uM ATP)

Q: Which IC50 does the source give for Nc1ncnc(N2CCC[C@@H](N3CCC[C@H](Nc4cc(Cl)cc(C(F)(F)F)c4)C3=O)C2)c1F [compound 312, (3S,3′R)-1′-(6-Amino-5-fluoropyrimidin-4-yl)-3-(3-chloro-5-(trifluoromethyl)phenylamino)-1,3′-bipiperidin-2-one] here?
A: < 0.1 µM

Same assay, conditions: read-out: IC50 (10 uM ATP); 10 uM ATP; in vitro Btk kinase assay, Example 41

Q: For C[C@H]1CCN(c2ncnc(N)c2F)C[C@@H]1N1CCCC(Nc2cc(Cl)cc(Cl)c2)C1=O (stereo partly drawn) [compound 281, trans-1′-(6-Amino-5-fluoropyrimidin-4-yl)-3-(3,5-dichlorophenylamino)-4′-methyl-1,3′-bipiperidin-2-one], which IC50 is on record?
A: < 0.1 µM

Q: O=C1C(Nc2cc(F)cc(Cl)c2)CCCN1[C@H]1CN(c2ncnc3[nH]ccc23)CC[C@@H]1C(F)(F)F (some centres unmarked) [compound 352] was tested. Which IC50 did it give?
A: < 0.1 µM

Q: For Nc1ncnc(N2CC[C@H](C(F)(F)F)[C@@H](N3CCCC(Nc4cc(Cl)cc(Cl)c4)C3=O)C2)c1F (stereo partly drawn) [compound 334, trans 1′-(6-Amino-5-fluoropyrimidin-4-yl)-3-(3,5-dichlorophenylamino)-4′-(trifluoromethyl)-1,3′-bipiperidin-2-one], which IC50 is on record?
A: < 0.1 µM

Q: For O=C1C(Nc2cc(Cl)cc(C(F)(F)F)c2)CCCN1[C@@H]1CCCN(c2ncnc3[nH]ccc23)C1 (stereo partly drawn) [compound 300, (3′R)-3-(3-Chloro-5-(trifluoromethyl)phenylamino)-1′-(7H-pyrrolo[2,3-d]pyrimidin-4-yl)-1,3′-bipiperidin-2-one], which IC50 is on record?
A: < 0.1 µM

Q: For O=C(CNc1ccccc1)Nc1cccc(C2CCCN(c3ncnc4[nH]ccc34)C2)c1 (centres unmarked) [Cmpd 17, N-(3-(1-(7H-pyrrolo[2,3-d]pyrimidin-4-yl)piperidin-3-yl)phenyl)-2-(phenylamino) acetamide], which IC50 is on record?
A: > 10 µM

Q: Which IC50 does the source give for S=C(Nc1ccccc1)Nc1cccc(C2CCCN(c3ncnc4[nH]ccc34)C2)c1 (centres unmarked) [Cmpd 67, 1-(3-(1-(7H-pyrrolo[2,3-d]pyrimidin-4-yl)piperidin-3-yl)phenyl)-3-phenylthiourea] here?
A: > 10 µM

Q: For O=C(Nc1cccc(C2CCCN(c3ncnc4[nH]ccc34)C2)c1)NC1CCNCC1 (centres unmarked) [compound 243], which IC50 is on record?
A: > 10 µM

Q: With NC(=O)Cc1ccccc1NC(=O)Nc1cccc(C2CCCN(c3ncnc4[nH]ccc34)C2)c1 (centres unmarked) [compound 261] as the molecule, how does the IC50 read?
A: > 10 µM

Q: How did the IC50 turn out when COc1ccc(C(=O)Nc2cccc(C3CCCN(c4ncnc5[nH]ccc45)C3)c2)cc1 (centres unmarked) [Cmpd 8, N-(3-(1-(7H-pyrrolo[2,3-d]pyrimidin-4-yl)piperidin-3-yl)phenyl)-4-methoxybenzamide] was run?
A: > 10 µM

Q: For Nc1ncnc(N2CCC[C@@H](N3CCCC(NCc4ccccc4)C3=O)C2)c1F (stereo partly drawn) [compound 291, (3′R)-1′-(6-Amino-5-fluoropyrimidin-4-yl)-3-(benzylamino)-1,3′-bipiperidin-2-one], which IC50 is on record?
A: > 10 µM

Q: With O=C1[C@H](Nc2cc(Cl)cc(Cl)c2)CCN1[C@H]1CN(c2ncnc3[nH]ccc23)CC[C@@H]1C(F)(F)F [compound 322] as the molecule, how does the IC50 read?
A: < 0.1 µM

Q: How did the IC50 turn out when Nc1ncnc(N2CCC[C@@H](N3CCCC(Nc4cc(F)cc(Cl)c4)C3=O)C2)c1F (stereo partly drawn) [compound 277, (3′R)-1′-(6-amino-5-fluoropyrimidin-4-yl)-3-(3-chloro-5-fluorophenylamino)-1,3′-bipiperidin-2-one] was run?
A: < 0.1 µM

Q: With O=C(Nc1cccc(C2CCCN(c3ncnc4[nH]ccc34)C2)c1)c1ccncc1 (centres unmarked) [compound 11, N-(3-(1-(7H-pyrrolo[2,3-d]pyrimidin-4-yl)piperidin-3-yl)phenyl)isonicotinamide] as the molecule, how does the IC50 read?
A: > 10 µM

Q: How did the IC50 turn out when c1cnc(Nc2cccc(C3CCCN(c4ncnc5[nH]ccc45)C3)c2)nc1 (centres unmarked) [compound 141, N-(3-(1-(7H-pyrrolo[2,3-d]pyrimidin-4-yl)piperidin-3-yl)phenyl)pyrimidin-2-amine] was run?
A: > 10 µM

Q: Which IC50 does the source give for CCOC(=O)/C=C/c1c(N)ncnc1N1CCCC(c2cccc(NC(=O)Nc3ccccc3)c2)C1 (centres unmarked) [compound 221] here?
A: > 10 µM

Q: How did the IC50 turn out when O=C(Nc1cccc(C2CCCN(c3ncnc4[nH]ccc34)C2)c1)c1ccc[nH]1 (centres unmarked) [compound 14, N-(3-(1-(7H-pyrrolo[2,3-d]pyrimidin-4-yl)piperidin-3-yl)phenyl)-1H-pyrrole-2-carboxamide] was run?
A: > 10 µM

Q: For O=C(NCC1CCC(C(F)(F)F)CC1)Nc1cccc(C2CCCN(c3ncnc4[nH]ccc34)C2)c1 (centres unmarked) [compound 257], which IC50 is on record?
A: > 10 µM

Q: With N#C/N=C(/NCC1CCCCC1)Nc1cccc(C2CCCN(c3ncnc4[nH]ccc34)C2)c1 (centres unmarked) [Cmpd 76, (E)-1-(3-(1-(7H-pyrrolo[2,3-d]pyrimidin-4-yl)piperidin-3-yl)phenyl)-2-cyano-3-(cyclohexylmethyl)guanidine] as the molecule, how does the IC50 read?
A: > 10 µM

Q: How did the IC50 turn out when Nc1ncnc(N2CC[C@@H](C(F)(F)F)[C@H](N3CCC[C@@H](Nc4cc(Cl)cc(Cl)c4)C3=O)C2)c1F [compound 335, trans (3R)-1′-(6-Amino-5-fluoropyrimidin-4-yl)-3-(3,5-dichlorophenylamino)-4′-(trifluoromethyl)-1,3′-bipiperidin-2-one] was run?
A: < 0.1 µM
